One assay addresses CDK4 (Homo sapiens (Human), UniProt P11802). The assay is described as follows: In vitro kinase inhibition, luminescence (ADP-Glo) with retinoblastoma substrate. It is filed as biochemical.
Another assay concerns the target CDK6 (Homo sapiens (Human), UniProt Q00534). The assay is described as follows: biochemical. It is filed as biochemical.
A further assay addresses CDK1 (cyclin B) (Homo sapiens (Human), UniProt P06493). The assay is described as follows: Z'-LYTE kinase assay. In kind it is biochemical. An excerpt:
The following equations were used for Z′-LYTE™ Screening Assay Data Analysis.

The next assay has as its target CDK2 (cyclin A) (Homo sapiens (Human), UniProt P24941). The assay is described as follows: Z'-LYTE kinase assay. In kind it is biochemical. The method, then:
IC50 values of compounds against CDK2 (cyclin A) were determined by Z'-LYTETM. […] The following equations were used for Z'-LYTETM Screening Assay Data Analysis.

The subject of another assay is MCF-7. Nature of the assay: Cancer cell proliferation assay, single agent. In kind it is cell-based. Particulars: Homo sapiens.
The test system of a further assay is DU4475. Nature of the assay: Cancer cell proliferation assay, single agent. It is filed as cell-based. Particulars: Homo sapiens.
A further assay has as its target FMS kinase (Homo sapiens (Human), UniProt P07333). Nature of the assay: LanthaScreen kinase assay (ATP, fluorescent-PolyGT substrate, TR-FRET). In kind it is biochemical.
For the next assay, the target named is PI3Kδ kinase (Homo sapiens (Human), UniProt O00329). The assay is described as follows: PI3Kδ kinase ADP-Glo assay (Reaction Biology Corporation). Particulars: read-out: PI3Kδ IC50.
Sequence of PI3Kδ kinase (O00329 whole entry): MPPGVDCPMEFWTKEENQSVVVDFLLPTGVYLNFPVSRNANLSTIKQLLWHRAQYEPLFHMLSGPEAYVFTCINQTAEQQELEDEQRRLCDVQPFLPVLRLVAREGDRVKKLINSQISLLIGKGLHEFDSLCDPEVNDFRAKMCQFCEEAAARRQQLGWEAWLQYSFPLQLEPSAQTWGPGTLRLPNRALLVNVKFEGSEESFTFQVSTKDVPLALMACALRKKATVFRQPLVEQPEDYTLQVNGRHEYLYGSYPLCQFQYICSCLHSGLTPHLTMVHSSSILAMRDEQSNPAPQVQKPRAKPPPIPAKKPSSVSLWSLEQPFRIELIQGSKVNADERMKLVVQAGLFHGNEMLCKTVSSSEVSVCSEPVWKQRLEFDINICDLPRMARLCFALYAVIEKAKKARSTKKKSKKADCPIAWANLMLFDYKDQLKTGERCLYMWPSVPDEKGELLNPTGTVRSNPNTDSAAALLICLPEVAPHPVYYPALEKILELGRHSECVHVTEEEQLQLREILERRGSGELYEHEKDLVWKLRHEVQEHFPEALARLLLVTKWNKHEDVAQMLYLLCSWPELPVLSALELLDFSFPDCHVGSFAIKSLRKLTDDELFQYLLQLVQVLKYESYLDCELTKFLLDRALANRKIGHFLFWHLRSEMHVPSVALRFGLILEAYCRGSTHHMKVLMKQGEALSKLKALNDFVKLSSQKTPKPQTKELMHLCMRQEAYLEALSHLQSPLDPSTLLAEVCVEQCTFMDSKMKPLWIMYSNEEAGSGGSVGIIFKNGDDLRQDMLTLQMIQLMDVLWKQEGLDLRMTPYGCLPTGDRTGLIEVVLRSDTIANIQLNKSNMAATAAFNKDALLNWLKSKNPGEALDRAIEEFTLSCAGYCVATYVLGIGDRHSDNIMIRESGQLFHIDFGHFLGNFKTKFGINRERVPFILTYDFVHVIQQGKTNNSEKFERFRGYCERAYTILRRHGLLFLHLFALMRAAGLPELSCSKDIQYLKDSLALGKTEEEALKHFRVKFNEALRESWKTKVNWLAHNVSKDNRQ
Sequence of PI3Kδ kinase (P27986 whole entry partner): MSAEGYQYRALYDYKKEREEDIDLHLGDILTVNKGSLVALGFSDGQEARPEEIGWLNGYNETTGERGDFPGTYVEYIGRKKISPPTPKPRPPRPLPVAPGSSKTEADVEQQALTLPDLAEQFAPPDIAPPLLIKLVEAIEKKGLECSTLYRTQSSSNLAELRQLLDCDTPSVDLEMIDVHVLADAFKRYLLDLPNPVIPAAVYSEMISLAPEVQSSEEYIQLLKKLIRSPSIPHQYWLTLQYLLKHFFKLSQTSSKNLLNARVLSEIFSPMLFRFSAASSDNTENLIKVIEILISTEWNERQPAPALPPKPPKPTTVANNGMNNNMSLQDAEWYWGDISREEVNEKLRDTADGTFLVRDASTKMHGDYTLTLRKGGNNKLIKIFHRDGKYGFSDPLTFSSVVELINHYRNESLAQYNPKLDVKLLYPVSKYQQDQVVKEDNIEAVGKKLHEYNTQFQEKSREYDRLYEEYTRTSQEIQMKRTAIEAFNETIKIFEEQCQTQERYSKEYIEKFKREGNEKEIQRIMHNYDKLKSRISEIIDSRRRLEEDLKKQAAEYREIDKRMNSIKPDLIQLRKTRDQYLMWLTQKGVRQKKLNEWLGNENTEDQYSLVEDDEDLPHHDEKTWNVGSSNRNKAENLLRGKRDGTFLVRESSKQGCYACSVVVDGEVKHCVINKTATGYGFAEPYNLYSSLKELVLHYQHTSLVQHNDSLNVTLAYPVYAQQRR
[1] abbreviates: MCF7, MCF-7 cells, treated for 24-168 hours, read-out: IC50 (nM) MCF-7.
Where [2] appears, read: DU-4475, DU4475 cells, treated for 24-168 hours, read-out: IC50 (nM) DU4475.
Where [3] appears, read: MCF7, read-out: IC50 (nM) MCF-7.
Where [4] appears, read: DU-4475, read-out: IC50 (nM) DU4475.

Where two headings read alike, the source gives them in different places.

Sequence of CDK4 (P11802 whole entry): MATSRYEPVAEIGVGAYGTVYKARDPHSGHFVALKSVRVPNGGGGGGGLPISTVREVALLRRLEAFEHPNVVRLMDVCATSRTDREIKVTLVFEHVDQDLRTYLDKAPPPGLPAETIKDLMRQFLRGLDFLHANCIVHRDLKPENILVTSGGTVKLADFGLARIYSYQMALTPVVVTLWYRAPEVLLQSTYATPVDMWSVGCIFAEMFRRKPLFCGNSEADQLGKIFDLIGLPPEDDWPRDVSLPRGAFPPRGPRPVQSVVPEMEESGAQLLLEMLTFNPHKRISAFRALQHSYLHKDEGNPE
Sequence of CDK4 (P24385 whole entry partner): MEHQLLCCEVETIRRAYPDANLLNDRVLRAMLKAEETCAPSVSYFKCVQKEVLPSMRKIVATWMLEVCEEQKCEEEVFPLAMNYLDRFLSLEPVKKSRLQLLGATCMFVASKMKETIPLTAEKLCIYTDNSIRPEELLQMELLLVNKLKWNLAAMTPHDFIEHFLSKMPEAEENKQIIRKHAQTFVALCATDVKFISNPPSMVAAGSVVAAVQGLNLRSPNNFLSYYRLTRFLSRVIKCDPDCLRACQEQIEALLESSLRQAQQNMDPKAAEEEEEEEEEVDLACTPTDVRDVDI
Sequence of FMS kinase (P07333 20-972): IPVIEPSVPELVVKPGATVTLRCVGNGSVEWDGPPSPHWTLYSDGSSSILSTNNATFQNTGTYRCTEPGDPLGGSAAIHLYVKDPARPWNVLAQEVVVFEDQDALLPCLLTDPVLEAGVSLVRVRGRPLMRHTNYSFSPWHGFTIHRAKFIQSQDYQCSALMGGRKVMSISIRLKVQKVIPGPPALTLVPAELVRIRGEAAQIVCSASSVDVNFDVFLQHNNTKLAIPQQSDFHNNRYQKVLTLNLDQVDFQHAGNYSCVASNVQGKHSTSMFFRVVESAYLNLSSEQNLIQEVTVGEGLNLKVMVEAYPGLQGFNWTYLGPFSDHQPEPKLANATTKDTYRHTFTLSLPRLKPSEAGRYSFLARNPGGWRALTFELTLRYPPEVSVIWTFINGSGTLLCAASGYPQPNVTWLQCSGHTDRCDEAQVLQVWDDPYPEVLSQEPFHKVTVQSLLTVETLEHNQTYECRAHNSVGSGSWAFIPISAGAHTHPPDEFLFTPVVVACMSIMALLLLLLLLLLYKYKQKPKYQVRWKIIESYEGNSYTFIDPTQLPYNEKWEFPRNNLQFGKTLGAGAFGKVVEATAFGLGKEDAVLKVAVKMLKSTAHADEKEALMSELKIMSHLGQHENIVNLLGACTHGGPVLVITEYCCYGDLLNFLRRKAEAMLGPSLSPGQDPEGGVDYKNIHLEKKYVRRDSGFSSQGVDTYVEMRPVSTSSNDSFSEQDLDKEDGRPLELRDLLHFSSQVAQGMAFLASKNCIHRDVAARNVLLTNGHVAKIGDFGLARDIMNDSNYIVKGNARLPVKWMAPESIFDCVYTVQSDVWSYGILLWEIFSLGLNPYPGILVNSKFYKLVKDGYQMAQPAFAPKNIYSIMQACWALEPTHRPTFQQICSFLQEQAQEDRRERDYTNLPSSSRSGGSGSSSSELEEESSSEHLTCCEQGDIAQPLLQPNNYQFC
Sequence of CDK1 (cyclin B) (P06493 whole entry): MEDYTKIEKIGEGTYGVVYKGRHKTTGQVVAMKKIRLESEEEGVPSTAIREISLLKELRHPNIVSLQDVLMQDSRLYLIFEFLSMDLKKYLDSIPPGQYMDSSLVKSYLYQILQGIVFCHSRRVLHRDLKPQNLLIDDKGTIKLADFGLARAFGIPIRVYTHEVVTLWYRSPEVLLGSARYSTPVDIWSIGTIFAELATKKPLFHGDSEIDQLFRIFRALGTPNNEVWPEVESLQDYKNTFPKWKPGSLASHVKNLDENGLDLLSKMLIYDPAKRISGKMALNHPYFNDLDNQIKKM
Sequence of CDK1 (cyclin B) (P14635 whole entry partner): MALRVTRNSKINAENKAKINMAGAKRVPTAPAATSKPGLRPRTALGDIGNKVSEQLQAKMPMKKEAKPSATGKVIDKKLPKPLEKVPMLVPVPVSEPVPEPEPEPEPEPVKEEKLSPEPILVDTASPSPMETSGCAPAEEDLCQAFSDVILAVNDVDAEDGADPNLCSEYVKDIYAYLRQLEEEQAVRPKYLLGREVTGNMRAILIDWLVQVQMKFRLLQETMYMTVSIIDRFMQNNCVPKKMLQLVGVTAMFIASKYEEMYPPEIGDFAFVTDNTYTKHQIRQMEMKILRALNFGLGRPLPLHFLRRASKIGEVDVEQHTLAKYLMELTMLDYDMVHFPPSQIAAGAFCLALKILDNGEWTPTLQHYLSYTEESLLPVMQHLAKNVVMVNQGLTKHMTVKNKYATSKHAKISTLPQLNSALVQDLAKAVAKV

For the molecule `COCCNS(=O)(=O)c1ccc(Nc2ncc(F)c(-c3cc(F)c4c(c3)N(C(C)C)CCO4)n2)cc1` [Compound 523, 4-(5-fluoro-4-(8-fluoro-4-isopropyl-3,4-dihydro-2H-benzo[b][1,4]oxazin-6-yl)pyrimidin-2-ylamino)-N-(2-methoxyethyl)benzenesulfonamide], the IC50 at CDK4 was found to be 0.02 µM; at CDK6, 0.051 µM; on CDK1 (cyclin B) it was 0.021 µM; against CDK2 (cyclin A), 0.074 µM; in the assay with MCF-7 (setting [1]), 55 nM; with DU4475 (setting [2]), 75 nM.

For the molecule `Fc1cnc(Nc2ccc3c(n2)CCNC3)nc1-c1cc(F)c2c(c1)N(C1CCCC1)CCO2` [Compound 509, N-(4-(4-cyclopentyl-8-fluoro-3,4-dihydro-2H-benzo[b][1,4]oxazin-6-yl)-5-fluoropyrimidin-2-yl)-5,6,7,8-tetrahydro-1,6-naphthyridin-2-amine], the IC50 against CDK4 stood at 0.005 µM; against CDK6 it was 0.01 µM; against CDK1 (cyclin B), 0.078 µM; at CDK2 (cyclin A), 0.033 µM; in the assay with MCF-7 (setting [1]), 1090 nM; in the assay on DU4475 (setting [2]), 1480 nM.

Turning to `Fc1cnc(Nc2ccc(N3CCCNCC3)cn2)nc1-c1cc(F)c2c(c1)N(C1CCCC1)CCO2` [Compound 478, N-(5-(1,4-diazepan-1-yl)pyridin-2-yl)-4-(4-cyclopentyl-8-fluoro-3,4-dihydro-2H-benzo[b][1,4]oxazin-6-yl)-5-fluoropyrimidin-2-amine], the IC50 came out at 0.009 µM on CDK4; 0.027 µM on CDK6; 0.453 µM on CDK1 (cyclin B); 0.097 µM at CDK2 (cyclin A); 2.21 µM against FMS kinase; 665 nM in the assay on MCF-7 (setting [3]). The concentration for half-maximal inhibition (IC50) in the assay on DU4475 (setting [4]) was determined as 1680 nM; on PI3Kδ kinase it was 33.7 µM.

Turning to `CC(C)N1CCOc2c(F)cc(-c3nc(Nc4ccc5c(c4)C(=O)NCC5)ncc3F)cc21` [Compound 502, 7-((5-fluoro-4-(8-fluoro-4-isopropyl-3,4-dihydro-2H-benzo[b][1,4]oxazin-6-yl)pyrimidin-2-yl)amino)-3,4-dihydroisoquinolin-1(2H)-one], the IC50 on CDK4 worked out at 0.012 µM; at CDK6, 0.028 µM; at CDK1 (cyclin B), 0.069 µM; against CDK2 (cyclin A) it was 0.074 µM; in the assay with MCF-7 (setting [1]), 435 nM; in the assay on DU4475 (setting [2]), 405 nM.

For `CC(C)N1CCOc2c(F)cc(-c3nc(Nc4ccc(C5CCN(C)C5)cn4)ncc3F)cc21` (stereo not drawn) [Compound 498, 5-fluoro-4-(8-fluoro-4-isopropyl-3,4-dihydro-2H-benzo[b][1,4]oxazin-6-yl)-N-(5-(1-methylpyrrolidin-3-yl)pyridin-2-yl)pyrimidin-2-amine], the IC50 at CDK4 is 0.001 µM; against CDK6 it was 0.003 µM; against CDK1 (cyclin B) it was 0.223 µM; against CDK2 (cyclin A), 0.155 µM; in the assay on MCF-7 (setting [1]) it was 170 nM; in the assay with DU4475 (setting [2]) it was 465 nM.

Consider `CC(C)N1CCOc2c(F)cc(-c3nc(Nc4cc(C5CCN(C)CC5)no4)ncc3F)cc21` [Compound 495, N-(5-fluoro-4-(8-fluoro-4-isopropyl-3,4-dihydro-2H-benzo[b][1,4]oxazin-6-yl)pyrimidin-2-yl)-3-(1-methylpiperidin-4-yl)isoxazol-5-amine], for which the IC50 turned out to be 0.005 µM against CDK1 (cyclin B), 0.002 µM against CDK2 (cyclin A), 110 nM in the assay on MCF-7 (setting [3]) and 310 nM in the assay with DU4475 (setting [4]).

For `CC(C)N1CCOc2c(F)cc(-c3nc(Nc4ccc(S(=O)(=O)NCCN(C)C)cc4)ncc3F)cc21` [Compound 513, N-(2-(dimethylamino)ethyl)-4-((5-fluoro-4-(8-fluoro-4-isopropyl-3,4-dihydro-2H-benzo[b][1,4]oxazin-6-yl)pyrimidin-2-yl)amino)benzenesulfonamide], the IC50 was 0.002 µM against CDK4; 0.008 µM on CDK6; < 0.001 µM against CDK1 (cyclin B); 0.003 µM against CDK2 (cyclin A); 17 nM in the assay with MCF-7 (setting [1]); 50 nM with DU4475 (setting [2]).

`CC(C)N1CCOc2c(F)cc(-c3nc(Nc4ccc5c(n4)CCNC5)ncc3F)cc21` [Compound 481, N-(5-fluoro-4-(8-fluoro-4-isopropyl-3,4-dihydro-2H-benzo[b][1,4]oxazin-6-yl)pyrimidin-2-yl)-5,6,7,8-tetrahydro-1,6-naphthyridin-2-amine]: the IC50 against CDK1 (cyclin B) was 0.069 µM; against CDK2 (cyclin A), 0.024 µM; at FMS kinase, 0.426 µM; with MCF-7 (setting [1]), 85 nM; with DU4475 (setting [2]) it was 345 nM; at PI3Kδ kinase, > 20 µM.

`CC(C)N1CCOc2c(F)cc(-c3nc(Nc4ccc(N5CCC(CN)CC5)cn4)ncc3F)cc21` [Compound 518, N-(5-(4-(aminomethyl)piperidin-1-yl)pyridin-2-yl)-5-fluoro-4-(8-fluoro-4-isopropyl-3,4-dihydro-2H-benzo[b][1,4]oxazin-6-yl)pyrimidin-2-amine]: the IC50 against CDK4 is 0.004 µM; against CDK6, 0.028 µM; against CDK1 (cyclin B), 1.19 µM; at CDK2 (cyclin A), 0.56 µM; in the assay with MCF-7 (setting [1]), 1020 nM; in the assay on DU4475 (setting [4]), 1330 nM.

Consider `CC(C)CN1CCOc2c(F)cc(-c3nc(Nc4ccc5c(n4)CCNC5)ncc3F)cc21` [Compound 483, N-(5-fluoro-4-(8-fluoro-4-isobutyl-3,4-dihydro-2H-benzo[b][1,4]oxazin-6-yl)pyrimidin-2-yl)-5,6,7,8-tetrahydro-1,6-naphthyridin-2-amine], for which the concentration for half-maximal inhibition (IC50) at CDK4 is 0.025 µM; at CDK6, 0.02 µM; against CDK1 (cyclin B) it was 0.181 µM; on CDK2 (cyclin A) it was 0.044 µM; against FMS kinase it was > 5 µM; with MCF-7 (setting [3]), 460 nM. The 50% inhibitory concentration (IC50) in the assay with DU4475 (setting [4]) is 665 nM; on PI3Kδ kinase it was > 50 µM.

On to `CCN1CCN(Cc2ccc(Nc3ncc(F)c(-c4cc(F)c5c(c4)N(C(C)C)CCO5)n3)nc2)CC1` [Compound 4, N-(5-((4-ethylpiperazin-1-yl)methyl)pyridin-2-yl)-5-fluoro-4-(8-fluoro-4-isopropyl-3,4-dihydro-2H-benzo[b][1,4]oxazin-6-yl)pyrimidin-2-amine], for which the IC50 at CDK1 (cyclin B) was 0.13 µM; at CDK2 (cyclin A), 0.012 µM; at FMS kinase it was 0.566 µM; in the assay with MCF-7 (setting [3]), 110 nM; on PI3Kδ kinase it was > 5 µM.

Turning to `CC(C)N1CCOc2c(F)cc(-c3nc(Nc4ccc5c(c4)CCN(C(=O)CN(C)C)C5)ncc3F)cc21` [Compound 456, 2-(dimethylamino)-1-(6-((5-fluoro-4-(8-fluoro-4-isopropyl-3,4-dihydro-2H-benzo[b][1,4]oxazin-6-yl)pyrimidin-2-yl)amino)-3,4-dihydroisoquinolin-2(1H)-yl)ethan-1-one], the IC50 against CDK4 is 0.004 µM; on CDK6 it was 0.0035 µM; against CDK1 (cyclin B), < 0.001 µM; at CDK2 (cyclin A), < 0.001 µM; against FMS kinase, 0.004 µM; in the assay with MCF-7 (setting [1]), < 4 nM. The half-maximal inhibitory concentration (IC50) at PI3Kδ kinase stood at 19.5 µM.

As for `CC(C)N1CCOc2c(F)cc(-c3nc(Nc4ccc(N5CCCNCC5)cn4)ncc3F)cc21` [Compound 477, N-(5-(1,4-diazepan-1-yl)pyridin-2-yl)-5-fluoro-4-(8-fluoro-4-isopropyl-3,4-dihydro-2H-benzo[b][1,4]oxazin-6-yl)pyrimidin-2-amine], the IC50 against CDK1 (cyclin B) is 0.158 µM; against CDK2 (cyclin A) it was 0.025 µM; on FMS kinase it was 0.752 µM; with MCF-7 (setting [3]), 280 nM; in the assay with DU4475 (setting [4]), 1100 nM; at PI3Kδ kinase, > 50 µM.

In the case of `CC(C)CN1CCOc2c(F)cc(-c3nc(Nc4ccc(C5CCN(C)CC5)cn4)ncc3F)cc21` [Compound 479, 5-fluoro-4-(8-fluoro-4-isobutyl-3,4-dihydro-2H-benzo[b][1,4]oxazin-6-yl)-N-(5-(1-methylpiperidin-4-yl)pyridin-2-yl)pyrimidin-2-amine], the IC50 against CDK4 turned out to be 0.0025 µM; on CDK6, 0.005 µM; against CDK1 (cyclin B) it was 0.213 µM; at CDK2 (cyclin A) it was 0.044 µM; against FMS kinase it was 2.6 µM; in the assay on MCF-7 (setting [3]), 240 nM.

For the molecule `CC(C)N1CCOc2c(F)cc(-c3nc(Nc4ccc(S(N)(=O)=O)cc4)ncc3F)cc21` [Compound 507, 4-((5-fluoro-4-(8-fluoro-4-isopropyl-3,4-dihydro-2H-benzo[b][1,4]oxazin-6-yl)pyrimidin-2-yl)amino)benzenesulfonamide], the IC50 is 0.006 µM against CDK4; 0.013 µM on CDK6; 0.0013 µM against CDK1 (cyclin B); 0.0032 µM at CDK2 (cyclin A); < 5 nM in the assay with MCF-7 (setting [1]); 20 nM with DU4475 (setting [2]).

`CC(C)N1CCOc2c(F)cc(-c3nc(Nc4cc(C5CCN(C)CC5)n[nH]4)ncc3F)cc21` [Compound 499, 5-fluoro-4-(8-fluoro-4-isopropyl-3,4-dihydro-2H-benzo[b][1,4]oxazin-6-yl)-N-(3-(1-methylpiperidin-4-yl)-1H-pyrazol-5-yl)pyrimidin-2-amine]: the IC50 is 0.069 µM against CDK1 (cyclin B), 0.019 µM against CDK2 (cyclin A), 175 nM with MCF-7 (setting [1]) and 345 nM in the assay with DU4475 (setting [4]).
